Values of other authors as cited in PubChem BioAssay AID1259409 (Chemical Carcinogenesis Research Information System (CCRIS), 2018).

System: rodent chemically induced tumor inhibition, incidence and multiplicity
Assay: CCRIS tumor inhibitor studies
Settings: for tumour outcome (control, treated, inhibition, significance): Species: RAT

C=CCSSCC=C
tumour outcome (control, treated, inhibition, significance) (Carcinogen: 2-AMINO-1-METHYL-6-PHENYLIMIDAZO[4,5-B]PYRIDINE [105650-23-5], Dose [Inhibitor]: 200 PPM IN DIET FOR 4 WK BEGINNING WK PRIOR TO FIRST CARCINOGEN DOSE (STUDY DURATION: 25 WK), Route [Inhibitor]: ORAL, Strain/Sex: SPRAGUE-DAWLEY/FEMALE, Target Tissue: Type of Lesion: MAMMARY GLAND: FIBROADENOMA OR DUCTAL CARCINOMA, Dose [Carcinogen]: 85 MG/KG BW 2X/WK FOR 4 WK (STUDY DURATION: 25 WK), Promoter: NONE): 68%, 52%, 24%, not significant | tumour outcome (control, treated, inhibition, significance) (Carcinogen: 2-AMINO-1-METHYL-6-PHENYLIMIDAZO[4,5-B]PYRIDINE, 105650-23-5, Dose [Inhibitor]: 0, 200 PPM IN HIGH FAT DIET FOR 4 WK BEGINNING 1 WK PRIOR TO CARCINOGEN TREATMENT (STUDY DURATION: 25 WK), Route [Inhibitor]: ORAL, Strain/Sex: SPRAGUE-DAWLEY/FEMALE, Target Tissue: Type of Lesion: MAMMARY GLAND: CARCINOMA, Dose [Carcinogen]: 85 MG/KG BW IN CORN OIL 8 TIMES IN 10 D, Promoter: NONE USED): 21/31 (68%), 16/31 (52%), 24%, not calculated | tumour outcome (control, treated, inhibition, significance) (Carcinogen: 2-AMINO-1-METHYL-6-PHENYLIMIDAZO[4,5-B]PYRIDINE, 105650-23-5, Dose [Inhibitor]: 0, 200 PPM IN HIGH FAT DIET FOR 4 WK BEGINNING 1 WK PRIOR TO CARCINOGEN TREATMENT (STUDY DURATION: 25 WK), Route [Inhibitor]: ORAL, Strain/Sex: SPRAGUE-DAWLEY/FEMALE, Target Tissue: Type of Lesion: MAMMARY GLAND: FIBROADENOMA, Dose [Carcinogen]: 85 MG/KG BW IN CORN OIL 8 TIMES IN 10 D, Promoter: NONE USED): 3/31 (10%), 0/31 (0%), 100%, not calculated | tumour outcome (control, treated, inhibition, significance) (Carcinogen: 7,12-DIMETHYLBENZ[A]ANTHRACENE, 57-97-6, Dose [Inhibitor]: 0, 1.8 MMOL/KG BW IN CORN OIL 96, 48 AND 24 HR PRIOR TO CARCINOGEN TREATMENT (STUDY DURATION: 25 WK), Route [Inhibitor]: GAVAGE, Strain/Sex: SPRAGUE-DAWLEY/FEMALE, Target Tissue: Type of Lesion: MAMMARY GLAND: ADENOCARCINOMA, Dose [Carcinogen]: 10 MG ONCE, Promoter: NONE USED): 92%, 36%, 61%, p<0.05 | tumour outcome (control, treated, inhibition, significance) (Carcinogen: AZOXYMETHANE, 25843-45-2, Dose [Inhibitor]: 0, 100 PPM IN DIET BEGINNING 2 WK PRIOR TO CARCINOGEN TREATMENT AND CONTINUING FOR DURATION OF STUDY (STUDY DURATION: 56, Route [Inhibitor]: ORAL, Strain/Sex: F344/MALE, Target Tissue: Type of Lesion: COLON: INVASIVE ADENOCARCINOMA, Dose [Carcinogen]: 15 MG/KG 1/WK FOR 2 WK, Promoter: NONE USED): 34%, 11%, 68%, p<0.05 | tumour outcome (control, treated, inhibition, significance) (Carcinogen: AZOXYMETHANE, 25843-45-2, Dose [Inhibitor]: 0, 100 PPM IN DIET BEGINNING 2 WK PRIOR TO CARCINOGEN TREATMENT AND CONTINUING FOR DURATION OF STUDY (STUDY DURATION: 56, Route [Inhibitor]: ORAL, Strain/Sex: F344/MALE, Target Tissue: Type of Lesion: COLON: NONINVASIVE ADENOCARCINOMA, Dose [Carcinogen]: 15 MG/KG 1/WK FOR 2 WK, Promoter: NONE USED): 53%, 53%, 0%, not significant | tumour outcome (control, treated, inhibition, significance) (Carcinogen: AZOXYMETHANE, 25843-45-2, Dose [Inhibitor]: 0, 200 PPM IN DIET BEGINNING 2 WK PRIOR TO CARCINOGEN TREATMENT AND CONTINUING FOR DURATION OF STUDY (STUDY DURATION: 56, Route [Inhibitor]: ORAL, Strain/Sex: F344/MALE, Target Tissue: Type of Lesion: COLON: INVASIVE ADENOCARCINOMA, Dose [Carcinogen]: 15 MG/KG 1/WK FOR 2 WK, Promoter: NONE USED): 34%, 6%, 82%, p<0.01 | tumour outcome (control, treated, inhibition, significance) (Carcinogen: AZOXYMETHANE, 25843-45-2, Dose [Inhibitor]: 0, 200 PPM IN DIET BEGINNING 2 WK PRIOR TO CARCINOGEN TREATMENT AND CONTINUING FOR DURATION OF STUDY (STUDY DURATION: 56, Route [Inhibitor]: ORAL, Strain/Sex: F344/MALE, Target Tissue: Type of Lesion: COLON: NONINVASIVE ADENOCARCINOMA, Dose [Carcinogen]: 15 MG/KG 1/WK FOR 2 WK, Promoter: NONE USED): 53%, 58%, -9%, not significant | tumour outcome (control, treated, inhibition, significance) (Carcinogen: DIETHYLNITROSAMINE, 55-18-5, N-METHYL-N-NITROSOUREA, 684-93-5, N,N'-DIMETHYLHYDRAZINE, 540-73-8, N-BUTYL-N-(4-HYDR, Carcinogen: DIETHYLNITROSAMINE, 55-18-5, N-METHYL-N-NITROSOUREA, 684-93-5, N,N'-DIMETHYLHYDRAZINE, 540-73-8, N-BUTYL-N-(4-HYDR, Dose [Inhibitor]: 0, 50 MG/KG BW IN CORN OIL 3/WK FOR 6 WK BEGINNING POST CARCINOGEN TREATMENT (STUDY DURATION: 28 WK), Route [Inhibitor]: GAVAGE, Strain/Sex: F344/MALE, Target Tissue: Type of Lesion: KIDNEY: RENAL CELL ADENOMA, Dose [Carcinogen]: 100 MG/KG BW DEN ONCE, 20 MG/KG BW MNU ONCE ON D 2, 5, 8 AND 11, 40 MG/KG BW DMH ON D 14, 17, 20 AND 23, 0.05% BHBN I, Dose [Carcinogen]: 100 MG/KG BW DEN ONCE, 20 MG/KG BW MNU ONCE ON D 2, 5, 8 AND 11, 40 MG/KG BW DMH ON D 14, 17, 20 AND 23, 0.05% BHBN I, Promoter: NONE USED): 4/20 (20%), 0/19 (0%), 100%, not calculated | tumour outcome (control, treated, inhibition, significance) (Carcinogen: DIETHYLNITROSAMINE, 55-18-5, N-METHYL-N-NITROSOUREA, 684-93-5, N,N'-DIMETHYLHYDRAZINE, 540-73-8, N-BUTYL-N-(4-HYDR, Carcinogen: DIETHYLNITROSAMINE, 55-18-5, N-METHYL-N-NITROSOUREA, 684-93-5, N,N'-DIMETHYLHYDRAZINE, 540-73-8, N-BUTYL-N-(4-HYDR, Dose [Inhibitor]: 0, 50 MG/KG BW IN CORN OIL 3/WK FOR 6 WK BEGINNING POST CARCINOGEN TREATMENT (STUDY DURATION: 28 WK), Route [Inhibitor]: GAVAGE, Strain/Sex: F344/MALE, Target Tissue: Type of Lesion: LARGE INTESTINE: ADENOMA, Dose [Carcinogen]: 100 MG/KG BW DEN ONCE, 20 MG/KG BW MNU ONCE ON D 2, 5, 8 AND 11, 40 MG/KG BW DMH ON D 14, 17, 20 AND 23, 0.05% BHBN I, Dose [Carcinogen]: 100 MG/KG BW DEN ONCE, 20 MG/KG BW MNU ONCE ON D 2, 5, 8 AND 11, 40 MG/KG BW DMH ON D 14, 17, 20 AND 23, 0.05% BHBN I, Promoter: NONE USED): 6/20 (30%), 1/19 (5%), 83%, p<0.01 | tumour outcome (control, treated, inhibition, significance) (Carcinogen: DIETHYLNITROSAMINE, 55-18-5, N-METHYL-N-NITROSOUREA, 684-93-5, N,N'-DIMETHYLHYDRAZINE, 540-73-8, N-BUTYL-N-(4-HYDR, Carcinogen: DIETHYLNITROSAMINE, 55-18-5, N-METHYL-N-NITROSOUREA, 684-93-5, N,N'-DIMETHYLHYDRAZINE, 540-73-8, N-BUTYL-N-(4-HYDR, Dose [Inhibitor]: 0, 50 MG/KG BW IN CORN OIL 3/WK FOR 6 WK BEGINNING POST CARCINOGEN TREATMENT (STUDY DURATION: 28 WK), Route [Inhibitor]: GAVAGE, Strain/Sex: F344/MALE, Target Tissue: Type of Lesion: LARGE INTESTINE: CARCINOMA, Dose [Carcinogen]: 100 MG/KG BW DEN ONCE, 20 MG/KG BW MNU ONCE ON D 2, 5, 8 AND 11, 40 MG/KG BW DMH ON D 14, 17, 20 AND 23, 0.05% BHBN I, Dose [Carcinogen]: 100 MG/KG BW DEN ONCE, 20 MG/KG BW MNU ONCE ON D 2, 5, 8 AND 11, 40 MG/KG BW DMH ON D 14, 17, 20 AND 23, 0.05% BHBN I, Promoter: NONE USED): 8/20 (40%), 3/19 (16%), 60%, not calculated | tumour outcome (control, treated, inhibition, significance) (Carcinogen: DIETHYLNITROSAMINE, 55-18-5, N-METHYL-NITROSOUREA ;684-93-5, N,N'-DIMETHYLHYDRAZINE, 540-73-8, N-BUTYL-N-(4-HYDROXY, Carcinogen: DIETHYLNITROSAMINE, 55-18-5, N-METHYL-NITROSOUREA ;684-93-5, N,N'-DIMETHYLHYDRAZINE, 540-73-8, N-BUTYL-N-(4-HYDROXY, Dose [Inhibitor]: 0, 50 MG/KG BW IN CORN OIL 3/WK FOR 6 WK BEGINNING POST CARCINOGEN TREATMENT (STUDY DURATION: 28 WK), Route [Inhibitor]: GAVAGE, Strain/Sex: F344/MALE, Target Tissue: Type of Lesion: KIDNEY: NEPHROBLASTOMA, Dose [Carcinogen]: 100 MG/KG BW DEN ONCE, 20 MG/KG BW MNU ONCE ON D 2, 5, 8 AND 11, 40 MG/KG BW DMH ON D 14, 17, 20 AND 23, 0.05% BHBN I, Dose [Carcinogen]: 100 MG/KG BW DEN ONCE, 20 MG/KG BW MNU ONCE ON D 2, 5, 8 AND 11, 40 MG/KG BW DMH ON D 14, 17, 20 AND 23, 0.05% BHBN I, Promoter: NONE USED): 5/20 (25%), 0/19 (0%), 100%, p<0.05 | tumour outcome (control, treated, inhibition, significance) (Carcinogen: DIETHYLNITROSAMINE, 55-18-5, N-METHYL-NITROSOUREA, 684-93-5, N,N'-DIMETHYLHYDRAZINE, 540-73-8, N-BUTYL-N-(4-HYDROX, Carcinogen: DIETHYLNITROSAMINE, 55-18-5, N-METHYL-NITROSOUREA, 684-93-5, N,N'-DIMETHYLHYDRAZINE, 540-73-8, N-BUTYL-N-(4-HYDROX, Dose [Inhibitor]: 0, 50 MG/KG BW IN CORN OIL 3/WK FOR 6 WK BEGINNING POST CARCINOGEN TREATMENT (STUDY DURATION: 28 WK), Route [Inhibitor]: GAVAGE, Strain/Sex: F344/MALE, Target Tissue: Type of Lesion: KIDNEY: RENAL CELL CARCINOMA, Dose [Carcinogen]: 100 MG/KG BW DEN ONCE, 20 MG/KG BW MNU ONCE ON D 2, 5, 8 AND 11, 40 MG/KG BW DMH ON D 14, 17, 20 AND 23, 0.05% BHBN I, Dose [Carcinogen]: 100 MG/KG BW DEN ONCE, 20 MG/KG BW MNU ONCE ON D 2, 5, 8 AND 11, 40 MG/KG BW DMH ON D 14, 17, 20 AND 23, 0.05% BHBN I, Promoter: NONE USED): 1/20 (5%), 0/19 (0%), 100%, not calculated | tumour outcome (control, treated, inhibition, significance) (Carcinogen: N-METHYL-N-NITROSOUREA, 684-93-5, Dose [Inhibitor]: 0, 57 UMOL/KG DIET FOR 25 WK BEGINNING 2 WK PRIOR TO CARCINOGEN DOSE (STUDY DURATION: 25 WK), Route [Inhibitor]: ORAL, Strain/Sex: SPRAGUE-DAWLEY/FEMALE, Target Tissue: Type of Lesion: MAMMARY GLAND: TUMOR, Dose [Carcinogen]: 15 MG/KG BW ONCE, Promoter: NONE USED): 81%, 38%, 53%, p<0.05 | outcome (Carcinogen: N-methyl-N-nitrosourea (684-93-5), Dose [Inhibitor]: 0, 150 mg/kg bw by gavage 2 x a wk for 16 wks of hormones and MNU, study duration 16 wks, Dose [Inhibitor]: 0, 150 mg/kg bw by gavage 2 x a wk for 16 wks of hormones and MNU, study duration 16 wks, Route [Inhibitor]: Oral, Species: Rat, Strain/Sex: Sprague-Dawley/Male, Target Tissue: Type of Lesion: Prostate: Prostatic intraepithelial neoplasia, Dose [Carcinogen]: 150 mg/kg bw once, Promoter: Cyproterone acetate (427-51-0) and testosterone propionate (57-85-2)): dorsolateral prostate: 40% (hormones + mnu); 10% (hormones + mnu + diallyl sulfi
